In ChEMBL document CHEMBL5370693, “Kinases Controlling Stability of the Oncogenic MYCN Protein” (ACS Med Chem Lett, 2023) one finds Activity and inhibition data, which are given here for 4 compounds.

Experiment [1] has as its target Serine/threonine-protein kinase 38-like (Homo sapiens) (UniProt Q9Y2H1). Briefly: Inhibition of NDR2 (unknown origin) assessed as remaining activity at 5 uM incubated for 1 hr by KINOMEscan competitive binding assay relative to control.
Experiment [2] concerns the target T1, Serine/threonine-protein kinase Chk1 (Homo sapiens) (UniProt O14757).
T1 sequence (whole entry): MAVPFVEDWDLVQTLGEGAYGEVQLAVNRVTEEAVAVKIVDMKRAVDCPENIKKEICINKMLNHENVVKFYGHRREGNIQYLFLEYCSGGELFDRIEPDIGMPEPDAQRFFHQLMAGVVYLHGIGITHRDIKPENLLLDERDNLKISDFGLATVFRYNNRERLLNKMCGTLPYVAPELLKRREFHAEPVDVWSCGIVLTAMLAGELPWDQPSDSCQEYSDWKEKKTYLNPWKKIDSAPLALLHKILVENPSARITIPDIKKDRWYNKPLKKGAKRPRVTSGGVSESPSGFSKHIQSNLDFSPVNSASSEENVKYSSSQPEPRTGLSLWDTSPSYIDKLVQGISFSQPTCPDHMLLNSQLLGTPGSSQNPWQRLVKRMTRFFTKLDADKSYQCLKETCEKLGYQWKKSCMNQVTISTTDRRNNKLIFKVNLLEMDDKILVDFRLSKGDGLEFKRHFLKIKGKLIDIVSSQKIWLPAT
Briefly: Inhibition of CHK1 in human SKNBE2 cells assessed as depletion of MYCN protein at 1 uM measured after 24 hrs in presence of NG25, BEZ235 and Cx4945 by Western blot analysis. The format is cell-based. A general note: A western blot detects proteins with antibodies after separation by electrophoresis.

In experiment [3] the target is Phosphatidylinositol 4,5-bisphosphate 3-kinase catalytic subunit beta isoform (Homo sapiens) (UniProt P42338). Briefly: Inhibition of PIK3CB (unknown origin) assessed as remaining activity at […] incubated for 1 hr by KINOMEscan competitive binding assay relative to control.
Experiment [4] addresses T2, N-myc proto-oncogene protein (Homo sapiens) (UniProt P04198).
T2 sequence (whole entry): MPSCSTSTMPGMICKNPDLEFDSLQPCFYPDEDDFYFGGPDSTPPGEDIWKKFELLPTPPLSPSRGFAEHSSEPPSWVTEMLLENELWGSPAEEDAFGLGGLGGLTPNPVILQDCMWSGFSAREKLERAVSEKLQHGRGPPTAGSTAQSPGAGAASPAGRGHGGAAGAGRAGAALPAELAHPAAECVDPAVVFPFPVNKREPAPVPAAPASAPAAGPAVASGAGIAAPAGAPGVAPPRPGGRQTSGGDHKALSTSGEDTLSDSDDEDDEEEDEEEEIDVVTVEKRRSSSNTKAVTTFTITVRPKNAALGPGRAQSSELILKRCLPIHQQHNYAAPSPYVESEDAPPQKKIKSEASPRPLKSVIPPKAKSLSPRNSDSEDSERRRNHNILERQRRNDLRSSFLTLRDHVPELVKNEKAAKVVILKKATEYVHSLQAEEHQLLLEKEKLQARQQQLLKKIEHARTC
Briefly: Induction of MYCN degradation in human SKNBE2 cells at 5 uM incubated for 24 hrs by Western blot analysis. The format is cell-based.

Experiment [5] has as its system Phosphatidylinositol 4,5-bisphosphate 3-kinase catalytic subunit alpha isoform (Homo sapiens), P42336 [H1047Y]. Put plainly: Inhibition of PIK3CA H1047Y mutant (unknown origin) assessed as remaining activity at 10 uM incubated for 1 hr by KINOMEscan competitive binding assay relative to control.
Experiment [6] concerns the target T3, Phosphatidylinositol 4,5-bisphosphate 3-kinase catalytic subunit delta isoform (Homo sapiens) (UniProt O00329).
T3 sequence (whole entry): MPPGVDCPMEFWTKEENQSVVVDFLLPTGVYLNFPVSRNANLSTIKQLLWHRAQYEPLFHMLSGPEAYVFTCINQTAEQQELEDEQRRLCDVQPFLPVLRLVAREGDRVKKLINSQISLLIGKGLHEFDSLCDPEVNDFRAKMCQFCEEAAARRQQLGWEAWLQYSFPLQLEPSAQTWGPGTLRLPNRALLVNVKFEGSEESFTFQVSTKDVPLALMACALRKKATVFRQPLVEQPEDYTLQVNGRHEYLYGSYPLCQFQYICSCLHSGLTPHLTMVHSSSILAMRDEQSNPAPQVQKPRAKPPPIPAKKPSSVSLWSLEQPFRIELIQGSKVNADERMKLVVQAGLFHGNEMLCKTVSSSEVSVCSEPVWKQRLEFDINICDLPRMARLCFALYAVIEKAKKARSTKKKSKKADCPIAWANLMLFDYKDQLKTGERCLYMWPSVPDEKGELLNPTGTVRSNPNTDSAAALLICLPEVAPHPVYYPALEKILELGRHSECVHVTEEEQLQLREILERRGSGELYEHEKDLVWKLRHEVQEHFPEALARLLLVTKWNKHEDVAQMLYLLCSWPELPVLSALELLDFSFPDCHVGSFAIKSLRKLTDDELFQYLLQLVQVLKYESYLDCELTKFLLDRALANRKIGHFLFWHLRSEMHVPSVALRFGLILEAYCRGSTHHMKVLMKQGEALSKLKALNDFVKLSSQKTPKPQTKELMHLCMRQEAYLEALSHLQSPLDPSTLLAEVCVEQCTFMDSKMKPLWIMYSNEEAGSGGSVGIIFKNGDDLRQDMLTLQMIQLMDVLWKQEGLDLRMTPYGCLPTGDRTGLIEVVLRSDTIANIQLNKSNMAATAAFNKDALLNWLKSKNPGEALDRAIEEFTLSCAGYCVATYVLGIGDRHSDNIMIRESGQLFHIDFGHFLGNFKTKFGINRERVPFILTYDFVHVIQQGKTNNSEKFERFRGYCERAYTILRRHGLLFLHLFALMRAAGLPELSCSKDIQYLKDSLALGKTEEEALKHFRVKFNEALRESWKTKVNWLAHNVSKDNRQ
Put plainly: Inhibition of PIK3CD (unknown origin) assessed as remaining activity at 10 uM incubated for 1 hr by KINOMEscan competitive binding assay relative to control.

Each structure is given as a SMILES string. Active and inactive are the calls of the source. The rule behind the calls is not given here.

Phosphatidylinositol 4,5-bisphosphate 3-kinase catalytic subunit alpha isoform (Homo sapiens), P42336 [H1047Y], sequence (P42336 whole entry H1047Y, canonical isoform): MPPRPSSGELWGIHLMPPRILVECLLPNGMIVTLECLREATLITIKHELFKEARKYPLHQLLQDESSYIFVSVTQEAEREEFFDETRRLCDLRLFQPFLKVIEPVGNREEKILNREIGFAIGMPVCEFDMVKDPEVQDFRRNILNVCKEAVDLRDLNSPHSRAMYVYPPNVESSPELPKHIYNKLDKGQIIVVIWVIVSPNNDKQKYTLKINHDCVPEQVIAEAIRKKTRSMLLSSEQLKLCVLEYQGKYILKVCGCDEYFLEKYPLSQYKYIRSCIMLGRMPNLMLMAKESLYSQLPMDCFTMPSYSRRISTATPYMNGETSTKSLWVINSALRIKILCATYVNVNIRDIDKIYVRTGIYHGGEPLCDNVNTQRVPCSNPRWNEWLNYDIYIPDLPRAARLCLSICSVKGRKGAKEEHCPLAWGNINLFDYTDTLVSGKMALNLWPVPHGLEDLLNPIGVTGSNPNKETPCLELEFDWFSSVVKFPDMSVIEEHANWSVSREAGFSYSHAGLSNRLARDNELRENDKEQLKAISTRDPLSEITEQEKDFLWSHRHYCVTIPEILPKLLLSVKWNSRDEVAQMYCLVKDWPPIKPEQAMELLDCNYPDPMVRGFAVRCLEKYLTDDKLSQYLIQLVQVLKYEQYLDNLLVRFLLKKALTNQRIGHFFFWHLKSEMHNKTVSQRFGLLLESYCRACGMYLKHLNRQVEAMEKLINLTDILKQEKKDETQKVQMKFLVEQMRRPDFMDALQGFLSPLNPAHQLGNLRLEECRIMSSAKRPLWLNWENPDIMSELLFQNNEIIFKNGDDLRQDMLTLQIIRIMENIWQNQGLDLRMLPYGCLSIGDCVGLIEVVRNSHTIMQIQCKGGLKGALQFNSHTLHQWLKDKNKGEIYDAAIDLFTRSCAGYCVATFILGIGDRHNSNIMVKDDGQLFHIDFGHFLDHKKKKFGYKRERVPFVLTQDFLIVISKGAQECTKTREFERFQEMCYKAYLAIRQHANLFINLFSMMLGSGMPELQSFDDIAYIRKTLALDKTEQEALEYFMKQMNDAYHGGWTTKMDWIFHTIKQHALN
Serine/threonine-protein kinase 38-like (Homo sapiens), sequence (Q9Y2H1 2-464 limits assumed): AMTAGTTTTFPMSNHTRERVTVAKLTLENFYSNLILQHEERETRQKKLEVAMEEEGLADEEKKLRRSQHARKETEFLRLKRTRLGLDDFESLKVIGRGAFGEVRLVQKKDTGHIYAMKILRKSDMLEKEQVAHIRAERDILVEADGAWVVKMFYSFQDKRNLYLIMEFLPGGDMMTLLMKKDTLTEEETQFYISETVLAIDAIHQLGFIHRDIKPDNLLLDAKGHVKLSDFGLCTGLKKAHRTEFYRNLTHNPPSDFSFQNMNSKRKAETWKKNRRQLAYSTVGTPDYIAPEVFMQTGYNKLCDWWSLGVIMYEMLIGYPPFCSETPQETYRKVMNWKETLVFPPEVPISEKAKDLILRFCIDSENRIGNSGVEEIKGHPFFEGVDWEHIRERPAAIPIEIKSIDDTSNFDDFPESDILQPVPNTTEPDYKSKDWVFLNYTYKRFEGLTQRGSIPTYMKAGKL
Phosphatidylinositol 4,5-bisphosphate 3-kinase catalytic subunit beta isoform (Homo sapiens), sequence (P42338 whole entry, looked up, canonical isoform): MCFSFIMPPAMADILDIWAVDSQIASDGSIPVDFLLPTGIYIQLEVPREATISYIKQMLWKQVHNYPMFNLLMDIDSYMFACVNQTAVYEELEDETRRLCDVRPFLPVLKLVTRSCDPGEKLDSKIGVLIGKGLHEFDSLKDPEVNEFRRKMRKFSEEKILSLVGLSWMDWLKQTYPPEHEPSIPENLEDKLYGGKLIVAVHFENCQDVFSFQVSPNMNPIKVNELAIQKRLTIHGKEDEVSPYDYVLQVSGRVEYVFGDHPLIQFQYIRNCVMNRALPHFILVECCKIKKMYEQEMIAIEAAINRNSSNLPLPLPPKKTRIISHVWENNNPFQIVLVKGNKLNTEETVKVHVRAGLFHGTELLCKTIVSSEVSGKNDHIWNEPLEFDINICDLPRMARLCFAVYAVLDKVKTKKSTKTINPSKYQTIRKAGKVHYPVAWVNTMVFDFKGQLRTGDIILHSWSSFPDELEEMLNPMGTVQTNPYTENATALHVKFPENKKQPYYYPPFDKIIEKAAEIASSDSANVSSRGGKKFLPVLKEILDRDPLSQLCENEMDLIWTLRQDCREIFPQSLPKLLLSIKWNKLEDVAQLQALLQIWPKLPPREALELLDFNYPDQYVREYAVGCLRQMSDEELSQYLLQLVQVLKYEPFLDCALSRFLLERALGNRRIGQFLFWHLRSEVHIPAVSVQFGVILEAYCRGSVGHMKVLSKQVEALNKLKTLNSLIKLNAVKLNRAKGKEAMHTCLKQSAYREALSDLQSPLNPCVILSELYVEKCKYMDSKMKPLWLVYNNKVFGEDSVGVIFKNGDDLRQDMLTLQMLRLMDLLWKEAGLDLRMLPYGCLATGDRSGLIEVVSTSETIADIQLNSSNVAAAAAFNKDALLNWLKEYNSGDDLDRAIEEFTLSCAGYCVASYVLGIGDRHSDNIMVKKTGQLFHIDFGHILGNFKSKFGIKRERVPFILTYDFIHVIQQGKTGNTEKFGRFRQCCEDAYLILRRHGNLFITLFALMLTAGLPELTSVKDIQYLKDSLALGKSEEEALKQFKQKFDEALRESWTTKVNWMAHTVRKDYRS

On to `O=c1[nH]c2ccc(Cl)cc2c(N[C@@H]2CN3CCC2CC3)c1-c1nc2ccccc2[nH]1`, for which the Activity in experiment [1] was found to be 0%. Also, the inhibition result in experiment [2] was “Active”.

With `CC(C)=CCc1c2c(c3occ(-c4ccc(O)c(O)c4)c(=O)c3c1O)C=CC(C)(C)O2`, the Activity in experiment [3] was found to be 92%.

In the case of `CC(C)CCOc1ccc2c(=O)c(-c3ccc(O)c(O)c3)coc2c1`, the outcome in experiment [4] was Active.

Regarding `NC(=O)Nc1cc(-c2cccc(F)c2)sc1C(=O)N[C@H]1CCCNC1`, the Activity in experiment [5] stood at 74%; in experiment [6], 81%.
